Source: patent publication US20260355129A1, “5-HT2C AGONISTS FOR TREATING PRADER-WILLI SYNDROME (PWS), METABOLIC SYNDROMES, AND OTHER DISEASES AND DISORDERS” (Park City Bio, LLC, priority 2025, published 2026)

Experiments:
Format in all cases: cell-based
Settings in all cases: HEK-293T, HEK293T, normalized to % 5-HT stimulation, class symbols (Table 5)
5-HT2C receptor = target: T1, 5-HT2C receptor (Homo sapiens, UniProt P28335); experiment: 5-HT2 receptor-mediated Gq activation, Gq/y1 dissociation by BRET, 5-HT2C
T1 construct: expressed in transfected cells; host or cells: HEK293T
T1 sequence (P28335 33-458): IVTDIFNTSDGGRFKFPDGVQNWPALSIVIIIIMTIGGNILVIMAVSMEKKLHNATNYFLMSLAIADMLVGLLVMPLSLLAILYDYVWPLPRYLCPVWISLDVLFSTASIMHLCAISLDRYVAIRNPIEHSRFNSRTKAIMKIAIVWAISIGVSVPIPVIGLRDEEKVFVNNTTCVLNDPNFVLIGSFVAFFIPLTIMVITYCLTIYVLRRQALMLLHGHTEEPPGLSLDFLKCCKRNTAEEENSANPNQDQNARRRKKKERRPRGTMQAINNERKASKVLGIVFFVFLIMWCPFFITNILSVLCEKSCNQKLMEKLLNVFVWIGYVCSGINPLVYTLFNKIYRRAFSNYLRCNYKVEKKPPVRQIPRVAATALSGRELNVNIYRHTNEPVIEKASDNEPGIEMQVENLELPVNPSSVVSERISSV
Source text: (§1) To measure 5-HT2 receptor-mediated Gq activation via Gq/y1 dissociation as measured by Bioluminescence Resonance Energy Transfer (BRET) (McCorvy J D, Wacker D, Wang S, Agegnehu B, Liu J, Lansu K, Tribo A R, Olsen R H J, Che T, Jin J, Roth B L. Structural determinants of 5-HT2B receptor activation and biased agonism. Nat Struct Mo/Biol. 2018; 25(9): 787-96), HEK293T cells were sub-cultured in Dulbecco's Modified Eagle Medium (DMEM) supplemented with 10% dialyzed fetal bovine serum (FBS) and were co-transfected in a 1:1:1:1 ratio with Rluc8-fused human Gaq (Gaq-Rluc8), a GFP2-fused to the C-terminus of human Gy1(Gy1-GFP2), human G131, and 5-HT2 receptor using TransiT-2020. […] Substrate addition occurred 15 minutes before reading and utilized 10 μL of the Rluc substrate coelenterazine 400a for Gq dissociation BRET^2 (Prolume/Nanolight, 5 μM final concentration). Plates were read for luminescence at 400 nm and fluorescent GFP2 emission at 510 nm at 1 second per well using a Mithras LB940 multimode microplate reader (e.g. one provided by Berthold). The BRET ratios of fluorescence/luminescence were calculated per well and were plotted as a function of drug concentration using Graphpad Prism 8 (Graphpad Software Inc., San Diego, CA).

5-HT2B receptor = target: T2, 5-HT2B receptor (Homo sapiens, UniProt P41595); experiment: 5-HT2 receptor-mediated Gq activation, Gq/y1 dissociation by BRET, 5-HT2B
T2 construct: expressed in transfected cells; host or cells: HEK293T
T2 sequence (P41595 whole entry): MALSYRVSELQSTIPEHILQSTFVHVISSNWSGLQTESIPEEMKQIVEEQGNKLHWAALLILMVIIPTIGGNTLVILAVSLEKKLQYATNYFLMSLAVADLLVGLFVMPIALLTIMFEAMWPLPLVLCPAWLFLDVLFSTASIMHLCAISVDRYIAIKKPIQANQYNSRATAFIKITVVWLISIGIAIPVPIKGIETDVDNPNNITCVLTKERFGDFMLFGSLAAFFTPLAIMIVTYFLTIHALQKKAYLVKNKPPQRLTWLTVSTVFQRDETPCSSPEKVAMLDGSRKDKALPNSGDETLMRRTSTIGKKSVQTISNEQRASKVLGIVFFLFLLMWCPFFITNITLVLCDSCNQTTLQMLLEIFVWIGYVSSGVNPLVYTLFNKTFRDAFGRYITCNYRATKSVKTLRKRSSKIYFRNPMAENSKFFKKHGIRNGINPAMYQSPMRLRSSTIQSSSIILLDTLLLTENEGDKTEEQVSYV
Source text: as §1

5-HT2A receptor = target: T3, 5-HT2A receptor (Homo sapiens, UniProt P28223); experiment: 5-HT2 receptor-mediated Gq activation, Gq/y1 dissociation by BRET, 5-HT2A
T3 construct: expressed in transfected cells; host or cells: HEK293T
T3 sequence (P28223 whole entry): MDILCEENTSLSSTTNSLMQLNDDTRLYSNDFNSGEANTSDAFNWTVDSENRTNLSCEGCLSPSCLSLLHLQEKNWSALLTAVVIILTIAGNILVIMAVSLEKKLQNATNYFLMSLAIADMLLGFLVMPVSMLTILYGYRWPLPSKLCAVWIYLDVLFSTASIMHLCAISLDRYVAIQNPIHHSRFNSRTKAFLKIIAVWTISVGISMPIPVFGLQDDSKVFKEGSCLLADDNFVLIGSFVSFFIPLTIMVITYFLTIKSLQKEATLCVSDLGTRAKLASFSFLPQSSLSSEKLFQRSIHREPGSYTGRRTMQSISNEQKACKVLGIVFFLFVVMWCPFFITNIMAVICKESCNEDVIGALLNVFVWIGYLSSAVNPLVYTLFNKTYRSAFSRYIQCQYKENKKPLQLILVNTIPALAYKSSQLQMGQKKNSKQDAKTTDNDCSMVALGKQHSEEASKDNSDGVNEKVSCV
Source text: as §1

| SMILES | Emax (5-HT2C receptor) [%] | Emax (5-HT2B receptor) [%] | Emax (5-HT2A receptor) [%] |
| --- | --- | --- | --- |
| CNC[C@H]1C[C@@H]1c1cc(F)ccc1OC | 50 to 80 | 50 to 80 | 50 to 80 |
| CNCC1CC1c1cc(F)ccc1SC (centres unmarked) | 50 to 80 |  | 50 to 80 |
